Results taken from US12077503B2, “Substituted cyclic amides and their use as herbicides” (FMC CORPORATION, priority 2015, dated 2024).
Like-named read-outs stand apart in the source and are kept apart here.

Assays:
Type in all cases: in vivo
[1] = tested on: ducksalad (Heteranthera limosa); assay: Test B flooded paddy test; details: Heteranthera limosa, Flood, 250 g ai/ha, read-out: Ducksalad plant response rating
Outline: (§1)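 Rating scale 0–100 (visual, vs untreated controls) after a 13–15 d greenhouse period; application to the flood layer, 3 cm above soil and maintained; plants at 2-leaf stage when treated.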

[2] = tested on: rice (Oryra sativa); assay: Test B flooded paddy test; details: Oryza sativa, Flood, 250 g ai/ha, read-out: Rice plant response rating
Outline: as §1

[3] = tested on: barnyardgrass (Echinochloa crus-galli); assay: Test B flooded paddy test; details: Echinochloa crus-galli, Flood, 250 g ai/ha, read-out: Barnyardgrass plant response rating
Outline: as §1

[4] = tested on: sedge, umbrella (small-flower umbrella sedge, Cyperus difformis); assay: Test B flooded paddy test; details: Cyperus difformis, Flood, 250 g ai/ha, read-out: Sedge, Umbrella plant response rating
Outline: as §1

[5] = tested on: giant foxtail (Setaria faberii); assay: Test A postemergence; details: Setaria faberi, post-emergence, 240 h; for pest or weed control at 125 g/ha: 125 g ai/ha; for pest or weed control at 500 g/ha: 500 g ai/ha
Outline: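 Treatment is preemergence as a directed soil spray after planting, or postemergence at the one- to two-leaf stage, with test chemical in a non-phytotoxic solvent mixture plus surfactant. Plants stay in the greenhouse about 10 d before visual injury scoring on a 0 to 100 scale versus untreated controls.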

[6] = scale of 0 to 100 where 0 is no effect and 100 is complete control
[7] = Postemergence, visual injury after approximately 10 d, 0 to 100 scale where 0 is no effect and 100 is complete control, read-out: Plant response rating, Foxtail, Giant
[8] = 0 to 100 scale where 0 is no effect and 100 is complete control
[9] = postemergence, visual injury on 0 to 100 scale (0 no effect, 100 complete control), approx. 10 d, read-out: Foxtail, Giant plant response rating
[10] = postemergence, visual injury, 0 to 100 scale (0 no effect, 100 complete control), approx. 10 d, read-out: Plant response rating, Foxtail, Giant
[11] = postemergence, 0 to 100 scale, 0 is no effect, 100 is complete control, read-out: Foxtail, Giant plant response rating
[12] = postemergence, visual injury rating after approximately 10 d, read-out: Foxtail, Giant plant response rating (0 to 100 scale, 0 no effect, 100 complete control)

## Cc1ccc([C@H]2CNC(=S)[C@@H]2C(=O)Nc2ccccc2F)cc1 (racemic) [Compound 945]
[1]; [6]
  pest or weed control at 250 g/ha: 85%
[2]; [6]
  pest or weed control at 250 g/ha: 0%
[3]; [6]
  pest or weed control at 250 g/ha: 0%
[4]; [6]
  pest or weed control at 250 g/ha: 0%
[5]; [7]
  pest or weed control at 125 g/ha: 0%

## Cc1ccc([C@H]2CNC(=S)[C@@H]2C(=O)Nc2cccc(F)c2F)cc1 (racemic) [Compound 946]
[1]; [6]
  pest or weed control at 250 g/ha: 0%
[2]; [6]
  pest or weed control at 250 g/ha: 0%
[3]; [6]
  pest or weed control at 250 g/ha: 0%
[4]; [6]
  pest or weed control at 250 g/ha: 0%
[5]; [7]
  pest or weed control at 125 g/ha: 0%

## O=C(Nc1cccc(F)c1F)[C@H]1C(=S)NC[C@@H]1c1ccc(C(F)(F)F)cc1 (racemic) [Compound 1048]
[1]; [8]
  pest or weed control at 250 g/ha: 50%
[2]; [8]
  pest or weed control at 250 g/ha: 0%
[3]; [8]
  pest or weed control at 250 g/ha: 30%
[4]; [8]
  pest or weed control at 250 g/ha: 0%
[5]; [9]
  pest or weed control at 125 g/ha: 60%
[5]; [10]
  pest or weed control at 500 g/ha: 80%

## O=C(Nc1ccccc1C(F)(F)F)[C@H]1C(=S)NC[C@@H]1c1ccc(C(F)(F)F)cc1 (racemic) [Compound 1049]
[1]; [8]
  pest or weed control at 250 g/ha: 70%
[2]; [8]
  pest or weed control at 250 g/ha: 0%
[3]; [8]
  pest or weed control at 250 g/ha: 20%
[4]; [8]
  pest or weed control at 250 g/ha: 0%
[5]; [9]
  pest or weed control at 125 g/ha: 70%
[5]; [10]
  pest or weed control at 500 g/ha: 80%

## Cc1ccc([C@H]2CN(C)C(=O)[C@]2(O)C(=O)Nc2cccc(F)c2F)cc1 (racemic) [Compound 1059]
[1]; [8]
  pest or weed control at 250 g/ha: 0%
[2]; [8]
  pest or weed control at 250 g/ha: 0%
[3]; [8]
  pest or weed control at 250 g/ha: 0%
[4]; [8]
  pest or weed control at 250 g/ha: 0%
[5]; [9]
  pest or weed control at 125 g/ha: 0%
[5]; [11]
  pest or weed control at 500 g/ha: 40%

## CN1C[C@H](c2ccc(C(F)(F)F)cc2)[C@](F)(C(=O)Nc2cccc(F)c2F)C1=O (racemic) [Compound 1152]
[1]; [8]
  pest or weed control at 250 g/ha: 0%
[2]; [8]
  pest or weed control at 250 g/ha: 0%
[3]; [8]
  pest or weed control at 250 g/ha: 0%
[4]; [8]
  pest or weed control at 250 g/ha: 0%
[5]; [9]
  pest or weed control at 125 g/ha: 20%
[5]; [11]
  pest or weed control at 500 g/ha: 40%

## CN1C[C@H](c2ccc(F)c(F)c2)[C@@H](C(=S)Nc2ccccc2F)C1=O (racemic) [Compound 1153]
[1]; [8]
  pest or weed control at 250 g/ha: 70%
[2]; [8]
  pest or weed control at 250 g/ha: 0%
[3]; [8]
  pest or weed control at 250 g/ha: 30%
[4]; [8]
  pest or weed control at 250 g/ha: 0%
[5]; [9]
  pest or weed control at 125 g/ha: 60%
[5]; [11]
  pest or weed control at 500 g/ha: 90%

## CN1C[C@H](c2cccc(C3CC3)c2)[C@@H](C(=O)Nc2cccc(F)c2F)C1=O [Compound 816]
[1]; [6]
  pest or weed control at 250 g/ha: 75%
[2]; [6]
  pest or weed control at 250 g/ha: 30%
[3]; [6]
  pest or weed control at 250 g/ha: 55%
[4]; [6]
  pest or weed control at 250 g/ha: 0%
[5]; [12]
  pest or weed control at 125 g/ha: 90%

## CN1C[C@H](c2cccc(F)c2)[C@@H](C(=O)Nc2ccccc2S(C)(=O)=O)C1=O [Compound 824]
[1]; [6]
  pest or weed control at 250 g/ha: 95%
[2]; [6]
  pest or weed control at 250 g/ha: 0%
[3]; [6]
  pest or weed control at 250 g/ha: 65%
[4]; [6]
  pest or weed control at 250 g/ha: 0%
[5]; [12]
  pest or weed control at 125 g/ha: 90%

## O=C1NC[C@H](c2cccc(C(F)(F)F)c2)[C@H]1C(=O)Nc1cccc2c1OC(F)(F)O2 [Compound 827]
[1]; [6]
  pest or weed control at 250 g/ha: 75%
[2]; [6]
  pest or weed control at 250 g/ha: 0%
[3]; [6]
  pest or weed control at 250 g/ha: 30%
[4]; [6]
  pest or weed control at 250 g/ha: 0%
[5]; [12]
  pest or weed control at 125 g/ha: 80%

## Cc1c(F)ccc([C@H]2CNC(=O)[C@@H]2C(=O)Nc2ccc(F)c(F)c2F)c1F [Compound 830]
[1]; [6]
  pest or weed control at 250 g/ha: 100%
[2]; [6]
  pest or weed control at 250 g/ha: 0%
[3]; [6]
  pest or weed control at 250 g/ha: 20%
[4]; [6]
  pest or weed control at 250 g/ha: 0%
[5]; [12]
  pest or weed control at 125 g/ha: 70%

## Cc1c(F)ccc([C@H]2CNC(=O)[C@@H]2C(=O)Nc2ccccc2C(F)(F)F)c1F [Compound 831]
[1]; [6]
  pest or weed control at 250 g/ha: 70%
[2]; [6]
  pest or weed control at 250 g/ha: 0%
[3]; [6]
  pest or weed control at 250 g/ha: 0%
[4]; [6]
  pest or weed control at 250 g/ha: 0%
[5]; [12]
  pest or weed control at 125 g/ha: 20%

## Cc1c(F)ccc([C@H]2CNC(=O)[C@@H]2C(=O)Nc2ccccc2S(C)(=O)=O)c1F [Compound 832]
[1]; [6]
  pest or weed control at 250 g/ha: 100%
[2]; [6]
  pest or weed control at 250 g/ha: 15%
[3]; [6]
  pest or weed control at 250 g/ha: 0%
[4]; [6]
  pest or weed control at 250 g/ha: 0%
[5]; [12]
  pest or weed control at 125 g/ha: 0%

## Cc1c(F)ccc([C@H]2CN(C)C(=O)[C@@H]2C(=O)Nc2cccc(F)c2F)c1F [Compound 834]
[1]; [6]
  pest or weed control at 250 g/ha: 65%
[2]; [6]
  pest or weed control at 250 g/ha: 0%
[3]; [6]
  pest or weed control at 250 g/ha: 60%
[4]; [6]
  pest or weed control at 250 g/ha: 0%
[5]; [12]
  pest or weed control at 125 g/ha: 90%

## Cc1c(F)ccc([C@H]2CN(C)C(=O)[C@@H]2C(=O)Nc2ccc(F)cc2F)c1F [Compound 835]
[1]; [6]
  pest or weed control at 250 g/ha: 70%
[2]; [6]
  pest or weed control at 250 g/ha: 20%
[3]; [6]
  pest or weed control at 250 g/ha: 50%
[4]; [6]
  pest or weed control at 250 g/ha: 0%
[5]; [12]
  pest or weed control at 125 g/ha: 90%

## O=C1NC[C@H](c2cc(F)c(C(F)(F)F)c(F)c2)[C@H]1C(=O)Nc1ccccc1F [Compound 837]
[1]; [6]
  pest or weed control at 250 g/ha: 70%
[2]; [6]
  pest or weed control at 250 g/ha: 0%
[3]; [6]
  pest or weed control at 250 g/ha: 0%
[4]; [6]
  pest or weed control at 250 g/ha: 0%
[5]; [12]
  pest or weed control at 125 g/ha: 90%

## O=C1NC[C@H](c2cc(F)c(C(F)(F)F)c(F)c2)[C@H]1C(=O)Nc1cccc(F)c1F [Compound 838]
[1]; [6]
  pest or weed control at 250 g/ha: 100%
[2]; [6]
  pest or weed control at 250 g/ha: 0%
[3]; [6]
  pest or weed control at 250 g/ha: 40%
[4]; [6]
  pest or weed control at 250 g/ha: 0%
[5]; [12]
  pest or weed control at 125 g/ha: 90%

## CSc1ccccc1NC(=O)[C@H]1C(=O)N(C)C[C@@H]1c1cc(C)cc(F)c1 [Compound 851]
[1]; [6]
  pest or weed control at 250 g/ha: 90%
[2]; [6]
  pest or weed control at 250 g/ha: 0%
[3]; [6]
  pest or weed control at 250 g/ha: 0%
[4]; [6]
  pest or weed control at 250 g/ha: 0%
[5]; [12]
  pest or weed control at 125 g/ha: 90%

## COc1cc([C@H]2CN(C)C(=O)[C@@H]2C(=O)Nc2ccccc2F)cc(C(F)(F)F)c1 [Compound 855]
[1]; [6]
  pest or weed control at 250 g/ha: 75%
[2]; [6]
  pest or weed control at 250 g/ha: 0%
[3]; [6]
  pest or weed control at 250 g/ha: 70%
[4]; [6]
  pest or weed control at 250 g/ha: 0%
[5]; [12]
  pest or weed control at 125 g/ha: 90%

## CN1C[C@H](c2cccc(OC(F)(F)C(F)F)c2)[C@@H](C(=O)Nc2ccccc2S(C)(=O)=O)C1=O [Compound 864]
[1]; [6]
  pest or weed control at 250 g/ha: 90%
[2]; [6]
  pest or weed control at 250 g/ha: 40%
[3]; [6]
  pest or weed control at 250 g/ha: 50%
[4]; [6]
  pest or weed control at 250 g/ha: 50%
[5]; [12]
  pest or weed control at 125 g/ha: 70%

## CN1C[C@H](c2cc(F)cc(F)c2)[C@@H](C(=O)Nc2ccc(C(F)(F)F)cn2)C1=O [Compound 869]
[1]; [6]
  pest or weed control at 250 g/ha: 60%
[2]; [6]
  pest or weed control at 250 g/ha: 0%
[3]; [6]
  pest or weed control at 250 g/ha: 0%
[4]; [6]
  pest or weed control at 250 g/ha: 0%
[5]; [12]
  pest or weed control at 125 g/ha: 60%

## CN1C[C@H](c2cc(F)cc(F)c2)[C@@H](C(=O)Nc2ccc(C(F)(F)F)nc2)C1=O [Compound 870]
[1]; [6]
  pest or weed control at 250 g/ha: 0%
[2]; [6]
  pest or weed control at 250 g/ha: 0%
[3]; [6]
  pest or weed control at 250 g/ha: 0%
[4]; [6]
  pest or weed control at 250 g/ha: 0%
[5]; [12]
  pest or weed control at 125 g/ha: 0%

## CN1C[C@H](c2cccc(COC(F)F)c2)[C@@H](C(=O)Nc2cccc(F)c2F)C1=O [Compound 873]
[1]; [6]
  pest or weed control at 250 g/ha: 100%
[2]; [6]
  pest or weed control at 250 g/ha: 0%
[3]; [6]
  pest or weed control at 250 g/ha: 85%
[4]; [6]
  pest or weed control at 250 g/ha: 50%
[5]; [12]
  pest or weed control at 125 g/ha: 90%

## CN1C[C@H](c2cc(F)c(F)c(F)c2)[C@@H](C(=O)Nc2cccc(F)c2F)C1=O [Compound 879]
[1]; [6]
  pest or weed control at 250 g/ha: 100%
[2]; [6]
  pest or weed control at 250 g/ha: 0%
[3]; [6]
  pest or weed control at 250 g/ha: 90%
[4]; [6]
  pest or weed control at 250 g/ha: 50%
[5]; [12]
  pest or weed control at 125 g/ha: 80%
